Measurements: ChEMBL document CHEMBL5625256, “Rapid access to icetexane diterpenes: Their protective effects against lipopolysaccharides-induced acute lung injury via PI3K/AKT/NF-κB axis in macrophages” (Eur J Med Chem, 2023)
The source made the active and inactive calls. The rule behind the calls is not given here.

Key:
[1] = system: RAW264.7; assay: Antiinflammatory activity against LPS-induced mouse RAW264.7 cells assessed as decrease in NF-kappaB level incubated for 8 hrs by DAPI staining based immunofluorescence analysis; type: functional, cell-based; conditions: dose <= 20.0 µM
[2] = system: RAW264.7; assay: Antiinflammatory activity against LPS-induced mouse RAW264.7 cells assessed as decrease in IL-1beta mRNA expression at 10 uM incubated for 8 hrs by RT-PCR analysis; type: functional, cell-based
[3] = system: RAW264.7; assay: Antiinflammatory activity against LPS-induced mouse RAW264.7 cells assessed as downregulation of AKT level incubated for 8 hrs by Western blot analysis; type: functional, cell-based; conditions: dose <= 20.0 µM
[4] = system: RAW264.7; assay: Antiinflammatory activity against LPS-induced mouse RAW264.7 cells assessed as downregulation of total PI3K level incubated for 8 hrs by Western blot analysis; type: functional, cell-based; conditions: dose <= 20.0 µM
[5] = system: RAW264.7; assay: Antiinflammatory activity against mouse RAW264.7 cells assessed as reduction in LPS-induced ROS production incubated for 8 hrs by DCFH-DA staining based flow cytometry analysis; type: functional, cell-based; conditions: dose <= 20.0 µM
[6] = system: RAW264.7; assay: Antiinflammatory activity against LPS-induced mouse RAW264.7 cells assessed as downregulation of total AKT level incubated for 8 hrs by Western blot analysis; type: functional, cell-based; conditions: dose <= 20.0 µM
[7] = system: RAW264.7; assay: Antiinflammatory activity against LPS-induced mouse RAW264.7 cells assessed as decrease in nuclear translocation incubated for 8 hrs by DAPI staining based immunofluorescence analysis; type: functional, cell-based; conditions: dose <= 20.0 µM
[8] = system: RAW264.7; assay: Antiinflammatory activity against LPS-induced mouse RAW264.7 cells assessed as inhibition of NO release incubated for 8 hrs […]; type: functional, cell-based; conditions: dose <= 20.0 µM
[9] = system: RAW264.7; assay: Antiinflammatory activity against LPS-induced mouse RAW264.7 cells transfected with AKT shRNA assessed as decrease in IL-1beta expression incubated for 8 hrs by Western blot analysis; type: functional, cell-based; conditions: dose <= 20.0 µM
[10] = system: Mus musculus; assay: Antiinflammatory activity against LPS-induced […] C57BL/6 mouse model assessed as reduction in lung injury score at 5 to 25 mg/kg, ip incubated for 24 hrs by H and E staining based analysis; type: functional, organism-based; conditions: dose 5-25 mg/kg
[11] = system: Mus musculus; assay: In vivo inhibition of PI3K-AKT phosphorylation in LPS-induced […] C57BL/6 mouse model at 5 to 25 mg/kg, ip measured for 24 hrs by Western blot analysis; type: functional, organism-based; conditions: dose 5-25 mg/kg
[12] = system: RAW264.7; assay: Antiinflammatory activity against LPS-induced mouse RAW264.7 cells assessed as decrease in TNF-alpha mRNA expression at 10 uM incubated for 8 hrs by RT-PCR analysis; type: functional, cell-based
[13] = system: Mus musculus; assay: Antiinflammatory activity against LPS-induced […] in ip dosed C57BL/6 mouse model assessed as increase in SOD level in serum incubated for 24 hrs; type: functional, organism-based; conditions: dose 5-25 mg/kg
[14] = system: RAW264.7; assay: Antiinflammatory activity against LPS-induced mouse RAW264.7 cells assessed as decrease in NF-kappaB level incubated for 8 hrs by Western blot analysis; type: functional, cell-based; conditions: dose <= 20.0 µM
[15] = system: RAW264.7; assay: Antiinflammatory activity against LPS-induced mouse RAW264.7 cells assessed as decrease in IkappaBalpha level incubated for 8 hrs by DAPI staining based immunofluorescence analysis; type: functional, cell-based; conditions: dose <= 20.0 µM
[16] = system: RAW264.7; assay: Antiinflammatory activity against LPS-induced mouse RAW264.7 cells assessed as decrease in IL-1beta mRNA expression incubated for 8 hrs by RT-PCR analysis; type: functional, cell-based; conditions: dose <= 20.0 µM
[17] = system: Mus musculus; assay: Antiinflammatory activity against LPS-induced […] C57BL/6 mouse model assessed as reduction IkappaBalpha level in lung at 5 to 25 mg/kg, ip incubated for 24 hrs by Western blot analysis; type: functional, organism-based; conditions: dose 5-25 mg/kg
[18] = system: Mus musculus; assay: In vivo inhibition of PI3K-AKT phosphorylation in LPS-induced […] C57BL/6 mouse model at 5 to 25 mg/kg, ip measured for 24 hrs by Immunohistochemistry analysis; type: functional, organism-based; conditions: dose 5-25 mg/kg
[19] = system: RAW264.7; assay: Antiinflammatory activity against LPS-induced mouse RAW264.7 cells assessed as decrease in TNF-alpha mRNA expression incubated for 8 hrs by RT-PCR analysis; type: functional, cell-based; conditions: dose <= 20.0 µM
[20] = system: Mus musculus; assay: Antiinflammatory activity against LPS-induced […] in ip dosed C57BL/6 mouse model assessed as reduction in MDA level in serum incubated for 24 hrs; type: functional, organism-based; conditions: dose 5-25 mg/kg
[21] = system: Mus musculus; assay: Antiinflammatory activity against LPS-induced […] C57BL/6 mouse model assessed as reduction in TNF-alpha mRNA expression in lung at 5 to 25 mg/kg, ip incubated for 24 hrs by RT-PCR analysis; type: functional, organism-based; conditions: dose 5-25 mg/kg
[22] = system: RAW264.7; assay: Antiinflammatory activity against LPS-induced mouse RAW264.7 cells assessed as downregulation of PI3K level incubated for 8 hrs by Western blot analysis; type: functional, cell-based; conditions: dose <= 20.0 µM
[23] = system: RAW264.7; assay: Antiinflammatory activity against LPS-induced mouse RAW264.7 cells assessed as decrease in nuclear translocation incubated for 8 hrs by Western blot analysis; type: functional, cell-based; conditions: dose <= 20.0 µM
[24] = system: RAW264.7; assay: Antiinflammatory activity against LPS-induced mouse RAW264.7 cells assessed as decrease in IL-6 mRNA expression at 10 uM incubated for 8 hrs by RT-PCR analysis; type: functional, cell-based
[25] = system: RAW264.7; assay: Antiinflammatory activity against LPS-induced mouse RAW264.7 cells transfected with AKT shRNA assessed as decrease in IL-6 expression incubated for 8 hrs by Western blot analysis; type: functional, cell-based; conditions: dose <= 20.0 µM
[26] = system: RAW264.7; assay: Antiinflammatory activity against LPS-induced mouse RAW264.7 cells assessed as decrease in IL-6 mRNA expression incubated for 8 hrs by RT-PCR analysis; type: functional, cell-based; conditions: dose <= 20.0 µM
[27] = system: RAW264.7; assay: Antiinflammatory activity against LPS-induced mouse RAW264.7 cells assessed as decrease in IkappaBalpha level incubated for 8 hrs by Western blot analysis; type: functional, cell-based; conditions: dose <= 20.0 µM
[28] = system: Mus musculus; assay: Antiinflammatory activity against LPS-induced […] C57BL/6 mouse model assessed as reduction in IL-1beta mRNA expression in lung at 5 to 25 mg/kg, ip incubated for 24 hrs by RT-PCR analysis; type: functional, organism-based; conditions: dose 5-25 mg/kg
[29] = system: Mus musculus; assay: Antiinflammatory activity against LPS-induced […] C57BL/6 mouse model assessed as reduction in IL-6 mRNA expression in lung at 5 to 25 mg/kg, ip incubated for 24 hrs by RT-PCR analysis; type: functional, organism-based; conditions: dose 5-25 mg/kg
[30] = system: RAW264.7; assay: Antiinflammatory activity against LPS-induced mouse RAW264.7 cells transfected with AKT shRNA assessed as decrease in TNF-alpha expression incubated for 8 hrs by Western blot analysis; type: functional, cell-based; conditions: dose <= 20.0 µM
[31] = system: RAW264.7; assay: Antiinflammatory activity against LPS-induced mouse RAW264.7 cells assessed as suppression of iNOS mRNA expression incubated for 8 hrs by RT-PCR analysis; type: functional, cell-based; conditions: dose <= 20.0 µM
[32] = system: RAW264.7; assay: Cytotoxicity against mouse RAW264.7 cells assessed as reduction in cell viability at 60 uM measured after 24 hrs by MTT assay; type: toxicity, cell-based; conditions: raw264.7, 24 h

SMILES: COc1c(C(C)C)cc2c(=O)cc3c(cc2c1OC)C=CC(=O)C3(C)C
- Activity [1]: Dose-Dependent Effect
- Activity [2]: Active
- Activity [3]: Dose-Dependent Effect
- Activity [4]: Dose-Dependent Effect
- Activity [5]: Dose-Dependent Effect
- Activity [6]: Dose-Dependent Effect
- Activity [7]: Dose-Dependent Effect
- Activity [8]: Dose-Dependent Effect
- Activity [9]: Dose-Dependent Effect
- Activity [10]: Active
- inhibition [11]: Active
- Activity [12]: Active
- Activity [13]: Dose-Dependent Effect
- Activity [14]: Dose-Dependent Effect
- Activity [15]: Dose-Dependent Effect
- Activity [16]: Dose-Dependent Effect
- Activity [17]: Active
- inhibition [18]: Active
- Activity [19]: Dose-Dependent Effect
- Activity [20]: Dose-Dependent Effect
- Activity [21]: Active
- Activity [22]: Dose-Dependent Effect
- Activity [23]: Dose-Dependent Effect
- Activity [24]: Active
- Activity [25]: Dose-Dependent Effect
- Activity [26]: Dose-Dependent Effect
- Activity [27]: Dose-Dependent Effect
- Activity [28]: Active
- Activity [29]: Active
- Activity [30]: Dose-Dependent Effect
- Activity [31]: Dose-Dependent Effect

SMILES: COc1c(C(C)C)cc2c(=O)cc3c(cc2c1OC)C=CC(O)C3(C)C (configuration not stated)
- Activity [32]: Toxic

SMILES: CC(C)c1cc2c(c(O)c1O)C=C1C=CC(=O)C(C)(C)C1CC2=O (configuration not stated)
- Activity [32]: Toxic

SMILES: C[C@@H]1C[C@H]2[C@@H]3CCC4=CC(=O)C=C[C@]4(C)[C@@]3(F)[C@@H](O)C[C@]2(C)[C@@]1(O)C(=O)CO
- Activity [2]: Active
- Activity [12]: Active
- Activity [24]: Active

SMILES: CC(C)c1cc2c(c3c1OC(C)(C)O3)C=C1C=CC(=O)C(C)(C)C1=CC2
- Activity [32]: Toxic
